# Tests used:
# [1] = molecular target: T1, tissue transglutaminase (tTGase) (Homo sapiens, UniProt P21980); details: cited from earlier work
# T1 sequence (P21980 1-687): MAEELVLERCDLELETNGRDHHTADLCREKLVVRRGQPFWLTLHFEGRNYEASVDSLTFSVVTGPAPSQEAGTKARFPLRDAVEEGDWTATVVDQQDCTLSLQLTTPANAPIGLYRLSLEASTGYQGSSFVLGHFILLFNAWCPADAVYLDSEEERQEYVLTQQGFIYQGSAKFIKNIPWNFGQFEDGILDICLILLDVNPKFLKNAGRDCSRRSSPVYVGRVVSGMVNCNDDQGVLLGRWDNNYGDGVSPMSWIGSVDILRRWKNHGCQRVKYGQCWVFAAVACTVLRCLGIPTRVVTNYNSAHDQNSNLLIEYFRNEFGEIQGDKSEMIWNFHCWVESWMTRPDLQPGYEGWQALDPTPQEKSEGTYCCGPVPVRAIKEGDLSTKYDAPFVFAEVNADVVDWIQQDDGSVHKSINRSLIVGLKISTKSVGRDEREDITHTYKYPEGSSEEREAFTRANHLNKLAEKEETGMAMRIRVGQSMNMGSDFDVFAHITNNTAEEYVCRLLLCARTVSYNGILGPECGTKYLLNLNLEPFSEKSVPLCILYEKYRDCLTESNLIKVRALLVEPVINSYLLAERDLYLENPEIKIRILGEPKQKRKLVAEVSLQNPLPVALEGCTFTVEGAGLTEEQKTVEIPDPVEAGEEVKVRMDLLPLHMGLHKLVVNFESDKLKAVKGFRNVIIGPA
# [2] = tested on: pancreatic proteases (elastase, trypsin, chymotrypsin); format: in vitro ADME
# Description: Because BBM exopeptidases are restricted to N- or C-terminal processing, it was investigated if generation of additional free peptide ends by pancreatic enzymes would accelerate digestion.
sequence,measurement,setting,value
PQPQLPYPQPQLPY,specificity of tTGase relative to its target peptide sequence in fibrinogen,[1],5 fold
same,proteolysis with trypsin or chymotrypsin,[2],No proteolysis was detected
same,hydrolysis by elastase,[2]; elastase at a high (non-physiological) concentration of 100 ng/μl,capable of hydrolyzing

# — patent US20080299108A1, “Peptides for Diagnostic and Therapeutic Methods for Celiac Sprue” (priority 2005, published 2008)
